Measurements published in patent publication US11492325B2, “Compounds as inhibitors of sodium channels” (Human BioMolecular Research Institute, priority 2016, dated 2022).
Structures can show the parent of a compound that is named as a salt. Where two headings read alike, the source gives them in different places.

What was measured:
[1] = tested on: normal human induced pluripotent stem cell (hiPSC) cardiomyocyte; conditions: for WT-Fold Prolongation: APD; for WT-Cessation Dose (μM): cessation of beating
[2] = tested on: cardiomyocytes derived from hiPSCs from a LQTS3 patient; conditions: for LQT-Fold (prolongation): cell in fold shortening column marked (prolongation)
[3] = tested on: cardiomyocytes derived from hiPSCs from a LQTS3 patient; test: cells; conditions: Homo sapiens, Cardiomyocyte
[4] = read-out: LQT-IC50 (uM)-Shortening
[5] = read-out: LQT-EC50 (μM) Shortening, pyridyl derivatives
[6] = WT cardiomyocytes, AP prolongation
[7] = LQT-3 cardiomyocytes, cessation of beating
[8] = read-out: LQT-EC50 (μM) Shortening, LQT-3 cardiomyocytes, AP shortening
[9] = read-out: LQT-IC50 (prolongation)

Cc1cccc(OCC(O)c2ccccc2)c1C (centres unmarked) [Compound 32, 2-(2,3-dimethylphenoxy)-1-phenylethanol]
WT-Fold Prolongation ([1]; normal hiPSC cardiomyocytes): None | Cessation of Beating ([1]; normal hiPSC cardiomyocytes): 133 µM | WT-Prolongation Dose ([1]; normal hiPSC cardiomyocytes): None | LQT-Cessation Dose ([2]; LQT3 cardiomyocytes): 66 µM | LQT-Fold Shortening ([2]; LQT3 cardiomyocytes): 1.355 | IC50 [3, 4]: 7.53 µM

Cc1cccc(C)c1OCC(NC(=O)c1ccccc1)c1ccccc1 (centres unmarked) [Compound 29, N-(2-(2,6-dimethylphenoxy)-1-phenylethyl)benzamide]
WT-Fold Prolongation ([1]; normal hiPSC cardiomyocytes): None | Cessation of Beating ([1]; normal hiPSC cardiomyocytes): None | WT-Prolongation Dose ([1]; normal hiPSC cardiomyocytes): None | LQT-Cessation Dose ([2]; LQT3 cardiomyocytes): None | LQT-Fold Shortening ([2]; LQT3 cardiomyocytes): 1.64 | IC50 [3, 4]: > 0.8 µM

Cc1cccnc1OCC(=NOCc1ccccc1)c1ccccc1 [Compound 19]
WT-Fold Prolongation ([1]; normal hiPSC cardiomyocytes): None | Cessation of Beating ([1]; normal hiPSC cardiomyocytes): 133 µM | WT-Prolongation Dose ([1]; normal hiPSC cardiomyocytes): None | WT-Cessation Dose ([1]; pyridyl derivatives): 133 µM | WT-EC50 (μM) Prolongation ([1]; pyridyl derivatives): Does Not Prolong AP | LQT-Cessation Dose ([2]; LQT3 cardiomyocytes): 133 µM | LQT-Fold Shortening ([2]; LQT3 cardiomyocytes): 1.406 | LQT-Fold Shortening ([2]; pyridyl derivatives): 1.406 | LQT-Shortening Dose ([2]; pyridyl derivatives): 66 µM | EC50 [3, 5]: 1.38 µM | IC50 [3, 4]: 1.38 µM

Cc1cccc(C)c1OC[C@@H](N)C1CC1.Cl [Compound 60]
WT-Fold Prolongation ([1]; normal hiPSC cardiomyocytes): 2.805 | Cessation of Beating ([1]; human, 5 min): 200 µM | WT-EAD Dose ([1]; human, 5 min): 66 µM | LQT-Fold Shortening ([2]; LQT3 cardiomyocytes): 1.22 | LQT-Cessation Dose ([2]; human, 5 min): 200 µM | IC50 [3, 4]: 0.11 µM

CCCCNC(C)COc1c(C)cccc1C (centres unmarked) [Compound 39, 1-(2,6-dimethylphenoxy)-N-butylpropan-2-amine]
WT-Fold Prolongation ([1]; normal hiPSC cardiomyocytes): 3.827 | Cessation of Beating ([1]; normal hiPSC cardiomyocytes): 133 µM | WT-EAD Dose ([1]; normal hiPSC cardiomyocytes): 66 µM | LQT-Cessation Dose ([2]; LQT3 cardiomyocytes): 66 µM | LQT-Fold Shortening ([2]; LQT3 cardiomyocytes): 1.180 | IC50 [3, 4]: 0.73 µM

CC(=O)NC(COc1c(C)cccc1C)c1ccccc1 (centres unmarked) [Compound 28, N-(2-(2,6-dimethylphenoxy)-1-phenylethyl)acetamide]
WT-Fold Prolongation ([1]; normal hiPSC cardiomyocytes): None | Cessation of Beating ([1]; normal hiPSC cardiomyocytes): 66 µM | WT-Prolongation Dose ([1]; normal hiPSC cardiomyocytes): None | LQT-Cessation Dose ([2]; LQT3 cardiomyocytes): 66 µM | LQT-Fold Shortening ([2]; LQT3 cardiomyocytes): 1.620 | IC50 [3, 4]: > 0.8 µM

Cc1cccc(C)c1OCC(N)c1ccc2ccccc2c1 (centres unmarked) [Compound 131]
WT-EC50 (μM) Prolongation [1, 6]: Does Not Prolong AP | LQT-Fold Shortening ([2]; LQT-3 cardiomyocytes): 1.309 | LQT-Cessation Dose [2, 7]: 133 µM | EC50 [3, 8]: 4.73 µM

NC(COc1ccncc1)c1ccccc1 (centres unmarked) [Compound 126]
WT-EC50 (μM) Prolongation [1, 6]: Does Not Prolong AP | WT-Cessation Dose (μM) ([1]; WT cardiomyocytes): No cessation of beating | LQT-Fold Shortening ([2]; LQT-3 cardiomyocytes): 1.281 | EC50 [3, 8]: 3.82 µM | EC50 [3, 5]: ~4 µM

C[C@@H](N)COc1ccccc1.Cl [Compound 71, (R)-1-phenoxypropan-2-amine hydrochloride]
WT-Fold Prolongation ([1]; normal hiPSC cardiomyocytes): 1.997 | Cessation of Beating ([1]; normal hiPSC cardiomyocytes): None | WT-EAD Dose ([1]; normal hiPSC cardiomyocytes): 200 µM | LQT-Cessation Dose ([2]; LQT3 cardiomyocytes): None | LQT-Fold (prolongation) [2]: 1.214 (prolongation) | IC50 [3, 9]: 194 µM

CC(N)COC1CCCCC1.Cl (centres unmarked) [Compound 87]
WT-Fold Prolongation ([1]; normal hiPSC cardiomyocytes): None | Cessation of Beating ([1]; normal hiPSC cardiomyocytes): None | WT-Prolongation Dose ([1]; normal hiPSC cardiomyocytes): None | LQT-Cessation Dose ([2]; LQT3 cardiomyocytes): None | LQT-Fold Shortening ([2]; LQT3 cardiomyocytes): 1.611 | IC50 [3, 4]: 34.8 µM

COc1ccccc1OCC(N)c1ccccc1 (centres unmarked) [Compound 26, 2-(2-methoxyphenoxy)-1-phenylethanamine]
WT-Fold Prolongation ([1]; normal hiPSC cardiomyocytes): 2.502 | Cessation of Beating ([1]; normal hiPSC cardiomyocytes): 22 µM | WT-EAD Dose ([1]; normal hiPSC cardiomyocytes): 7.4 µM | LQT-Cessation Dose ([2]; LQT3 cardiomyocytes): 133 µM | LQT-Fold Shortening ([2]; LQT3 cardiomyocytes): 1.482 | IC50 [3, 4]: 0.13 µM

Cc1cc(C)cc(OC[C@@H](N)C2CC2)c1.Cl [Compound 62]
WT-Fold Prolongation ([1]; normal hiPSC cardiomyocytes): 1.585 | Cessation of Beating ([1]; normal hiPSC cardiomyocytes): 200 µM | WT-EAD Dose ([1]; normal hiPSC cardiomyocytes): 66 µM | LQT-Cessation Dose ([2]; LQT3 cardiomyocytes): 200 µM | LQT-Fold Shortening ([2]; LQT3 cardiomyocytes): 1.19 | IC50 [3, 4]: 1.03 µM

Cc1ccc(OCC(N)c2ccccc2)cn1 (centres unmarked) [Compound 114]
WT-EC50 (μM) Prolongation [1, 6]: Does Not Prolong AP | WT-Cessation Dose (μM) ([1]; WT cardiomyocytes): No cessation of beating | LQT-Fold Shortening ([2]; LQT-3 cardiomyocytes): 1.233 | EC50 [3, 8]: 67.5 µM

NC(COc1ccc2ccccc2c1)c1ccccc1 (centres unmarked) [Compound 130]
WT-EC50 (μM) Prolongation [1, 6]: Does Not Prolong AP | LQT-Fold Shortening ([2]; LQT-3 cardiomyocytes): 1.459 | LQT-Cessation Dose [2, 7]: 133 µM | EC50 [3, 8]: 8.7 µM

Cc1cccc(Cl)c1OC[C@H](C)N [Compound 57, (S)-1-(2-chloro-6-methylphenoxy)propan-2-amine hydrochloride]
WT-Fold Prolongation ([1]; normal hiPSC cardiomyocytes): 3.615 | Cessation of Beating ([1]; normal hiPSC cardiomyocytes): None | WT-EAD Dose ([1]; normal hiPSC cardiomyocytes): 200 µM | LQT-Cessation Dose ([2]; LQT3 cardiomyocytes): None | LQT-Fold Shortening ([2]; LQT3 cardiomyocytes): 1.14 | IC50 [3, 4]: 0.19 µM

COCCNC(COc1c(C)ccnc1C)c1ccccc1 (centres unmarked) [Compound 122]
WT-EC50 (μM) Prolongation [1, 6]: Does Not Prolong AP | LQT-Fold Shortening ([2]; LQT-3 cardiomyocytes): 1.188 | EC50 [3, 8]: 46.6 µM

Cl.NC(COc1cccc(C(F)(F)F)c1)c1ccccc1 (centres unmarked) [Compound 81, 1-phenyl-2-(3-(trifluoromethyl)phenoxy)ethan-1-amine]
WT-Fold Prolongation ([1]; normal hiPSC cardiomyocytes): None | Cessation of Beating ([1]; normal hiPSC cardiomyocytes): 66 µM | WT-Prolongation Dose ([1]; normal hiPSC cardiomyocytes): None | LQT-Cessation Dose ([2]; LQT3 cardiomyocytes): 66 µM | LQT-Fold Shortening ([2]; LQT3 cardiomyocytes): 1.539 | IC50 [3, 4]: 4.07 µM

NC(COc1ncccc1C(F)(F)F)c1ccccc1 (centres unmarked) [Compound 96, 1-phenyl-2-((3-(trifluoromethyl)pyridin-2-yl)oxy)ethan-1-amine]
WT-Fold Prolongation ([1]; normal hiPSC cardiomyocytes): 1.163 | Cessation of Beating ([1]; normal hiPSC cardiomyocytes): None | WT-Cessation Dose ([1]; pyridyl derivatives): No cessation of beating | WT-EC50 (μM) Prolongation ([1]; pyridyl derivatives): Does Not Prolong AP | LQT-Cessation Dose ([2]; LQT3 cardiomyocytes): None | LQT-Fold Shortening ([2]; LQT3 cardiomyocytes): 1.3 | LQT-Fold Shortening ([2]; pyridyl derivatives): 1.358 | LQT-Shortening Dose ([2]; pyridyl derivatives): 133 µM | EC50 [3, 5]: 20.7 µM

Cc1ccccc1OCC(N)c1ccc2ccccc2c1 (centres unmarked) [Compound 133]
WT-EC50 (μM) Prolongation [1, 6]: Does Not Prolong AP | LQT-Fold Shortening ([2]; LQT-3 cardiomyocytes): 1.302 | LQT-Cessation Dose [2, 7]: 133 µM | EC50 [3, 8]: 8.83 µM

CCCc1ccccc1OCC(C)N (centres unmarked) [Compound 49, 1-(2-Propylphenoxy)propan-2-amine]
WT-Fold Prolongation ([1]; normal hiPSC cardiomyocytes): 1.385 | Cessation of Beating ([1]; normal hiPSC cardiomyocytes): 200 µM | LQT-Cessation Dose ([2]; LQT3 cardiomyocytes): 133 µM | LQT-Fold Shortening ([2]; LQT3 cardiomyocytes): 1.192 | IC50 [3, 4]: 0.85 µM

COCCNC(C)COc1c(C)cccc1C (centres unmarked) [Compound 40, 1-(2,6-dimethylphenoxy)-N-methoxy-ethyl-2-amine]
WT-Fold Prolongation ([1]; normal hiPSC cardiomyocytes): 4.366 | Cessation of Beating ([1]; normal hiPSC cardiomyocytes): None | WT-EAD Dose ([1]; normal hiPSC cardiomyocytes): 66 µM | WT-Prolongation Dose ([1]; normal hiPSC cardiomyocytes): 32 µM | LQT-Cessation Dose ([2]; LQT3 cardiomyocytes): None | LQT-Fold Shortening ([2]; LQT3 cardiomyocytes): 1.267 | LQT-Shortening Dose ([2]; LQT3 cardiomyocytes): 7.4 µM | IC50 [3, 4]: 2.31 µM

Cc1cccc(C)c1OCC(C)NC(=O)c1ccccc1 (centres unmarked) [Compound 54]
WT-Fold Prolongation ([1]; normal hiPSC cardiomyocytes): None | Cessation of Beating ([1]; normal hiPSC cardiomyocytes): 66 µM | WT-Prolongation Dose ([1]; normal hiPSC cardiomyocytes): None | LQT-Cessation Dose ([2]; LQT3 cardiomyocytes): 133 µM | LQT-Fold Shortening ([2]; LQT3 cardiomyocytes): 1.45 | IC50 [3, 4]: 57.8 µM

Cc1cccc(C)c1OCC(N)C1CCCCC1.Cl (centres unmarked) [Compound 73]
WT-Fold Prolongation ([1]; normal hiPSC cardiomyocytes): None | Cessation of Beating ([1]; normal hiPSC cardiomyocytes): 66 µM | WT-Prolongation Dose ([1]; normal hiPSC cardiomyocytes): None | LQT-Cessation Dose ([2]; LQT3 cardiomyocytes): 66 µM | LQT-Fold Shortening ([2]; LQT3 cardiomyocytes): 1.136 | IC50 [3, 4]: 0.082 µM

C[C@H](N)COc1ccccc1.Cl [Compound 72]
WT-Fold Prolongation ([1]; normal hiPSC cardiomyocytes): 2.93 | Cessation of Beating ([1]; normal hiPSC cardiomyocytes): None | WT-EAD Dose ([1]; normal hiPSC cardiomyocytes): 133 µM | LQT-Cessation Dose ([2]; LQT3 cardiomyocytes): None | LQT-Fold (prolongation) [2]: 1.133 (prolongation) | IC50 [3, 9]: 129 µM

Cc1ncccc1OCC(N)c1ccccc1 (centres unmarked) [Compound 111]
WT-EC50 (μM) Prolongation [1, 6]: Does Not Prolong AP | LQT-Fold Shortening ([2]; LQT-3 cardiomyocytes): 1.426 | LQT-Shortening Dose (μM) ([2]; LQT-3 cardiomyocytes): Does Not Shorten | EC50 [3, 8]: 8.57 µM | EC50 [3, 5]: ~8 µM

CCc1ccccc1OCC(N)c1ccccc1 (centres unmarked) [Compound 24]
WT-Fold Prolongation ([1]; normal hiPSC cardiomyocytes): None | Cessation of Beating ([1]; normal hiPSC cardiomyocytes): 66 µM | WT-Prolongation Dose ([1]; normal hiPSC cardiomyocytes): None | LQT-Cessation Dose ([2]; LQT3 cardiomyocytes): 22 µM | LQT-Fold Shortening ([2]; LQT3 cardiomyocytes): 1.979 | IC50 [3, 4]: 0.38 µM
